Each structure is given as a SMILES string.

The results in this text go back to patent US12421249B2, “Inhibitors of APOL1 and methods of using same” (Vertex Pharmaceuticals Incorporated, priority 2020, dated 2025).

Assay [1] deals with T1, APOL1 (Homo sapiens, UniProt O14791).
T1 sequence (O14791 1-398 S342G/I384M): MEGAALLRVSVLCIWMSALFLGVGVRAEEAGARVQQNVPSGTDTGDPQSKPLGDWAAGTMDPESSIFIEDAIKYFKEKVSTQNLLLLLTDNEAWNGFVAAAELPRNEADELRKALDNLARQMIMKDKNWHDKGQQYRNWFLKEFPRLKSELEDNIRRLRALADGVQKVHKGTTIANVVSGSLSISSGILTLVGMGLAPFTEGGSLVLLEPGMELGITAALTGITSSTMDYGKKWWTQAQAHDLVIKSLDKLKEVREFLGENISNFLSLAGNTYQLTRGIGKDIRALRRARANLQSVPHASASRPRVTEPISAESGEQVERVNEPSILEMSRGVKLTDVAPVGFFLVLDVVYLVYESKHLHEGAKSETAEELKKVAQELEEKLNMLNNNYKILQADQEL
The assay can be described thus: Multi-Tox Assay (MultiTox-Fluor Multiplex Cytotoxicity Assay in tet-inducible APOL1 T-REx-HEK293 cells; Table 46 does not say which APOL1 variant G0/G1/G2). The assay is classed as cell-based. To be noted: APOL1 variant not given; for IC50: IP50 = IC50 for cell proliferation.

Assay [2] deals with T2, APOL1 G1 (Homo sapiens, UniProt O14791, I384M/S342G).
T2 sequence (O14791 28-398 S342G/I384M): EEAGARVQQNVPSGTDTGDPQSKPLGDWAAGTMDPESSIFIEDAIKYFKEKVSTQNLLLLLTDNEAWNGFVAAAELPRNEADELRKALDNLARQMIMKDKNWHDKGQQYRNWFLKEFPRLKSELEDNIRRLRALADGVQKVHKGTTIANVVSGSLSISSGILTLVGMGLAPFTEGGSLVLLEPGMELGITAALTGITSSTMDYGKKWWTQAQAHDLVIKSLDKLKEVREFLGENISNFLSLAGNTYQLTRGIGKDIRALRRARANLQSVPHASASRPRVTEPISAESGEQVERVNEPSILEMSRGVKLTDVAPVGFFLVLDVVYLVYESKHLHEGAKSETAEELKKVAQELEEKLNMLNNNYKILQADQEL
In words: Trypanosoma brucei brucei Lysis Assay Using APOL1 Recombinant Protein (AlamarBlue viability readout). In kind it is cell-based. The settings on record: Trypanosome Assay; for IC50: IP50 = IC50 for cell proliferation, read-out: Trypanosome Assay IP50; for Emax: read-out: Trypanosome Assay Max Activity (%). Summed up:
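Percent viability comes from AlamarBlue (resazurin→resorufin) fluorescence interpolated on a standard curve of known parasite numbers, with no-APOL1 wells as 100%. Parasites (Lister 427 bloodstream form, 120,000/well, serum-free assay medium) meet 0.05 μg/mL APOL1 (~EC90). Compounds span a 10-point series, 0.1% DMSO final.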

`Cc1cc(C2CC3(CC(C)N2)OCCc2cc(Cl)sc23)ncn1` (stereo not drawn) [Compound 43]: in assay [1], the “Multi-Tox Assay Max Activity (%)” value was determined as 100.0% and the IC50 was below 0.05 µM. For the same compound, in assay [2], the IC50 is below 0.05 µM and the Emax turned out to be 103%.
With `CC1CC2(CC(c3cncnc3)N1)OCCc1cc(Cl)sc12` (stereo not drawn) [Compound 45], in assay [1], the “Multi-Tox Assay Max Activity (%)” value is given as 100.0% and the IC50 was below 0.05 µM. Moreover, in assay [2], the IC50 is below 0.05 µM and the Emax was determined as 103%.
As to `CC1CC2(CC(c3cnn(CCS(C)(=O)=O)c3)N1)OCCc1cc(Cl)sc12` (stereo not drawn) [Compound 46], in assay [1], the “Multi-Tox Assay Max Activity (%)” value is recorded as 99.0% and the IC50 is below 0.05 µM. Moreover, in assay [2], the IC50 was below 0.05 µM and the Emax was found to be 108%.
For the compound `CC1CC2(CC(c3cn(CC4CC4)nn3)N1)OCCc1cc(Cl)sc12` (stereo not drawn) [Compound 122], the IC50 in assay [1] was below 0.05 µM. Moreover, in assay [2], the IC50 was in the range of 0.05 to 0.5 µM and the Emax came to 106%.
The like results for `C[C@H]1C[C@@]2(C[C@@H](c3cn(C)nn3)N1)OC[C@@H](O)c1cc(Cl)sc12` [Compound 174, (2′S,4S,6′S,7S)-2-chloro-2′-methyl-6′-(1-methyltriazol-4-yl)spiro[4,5-dihydrothieno[2,3-c]pyran-7,4′-piperidine]-4-ol] were, in that order, below 0.05 µM, below 0.05 µM and 104%.
Compound `C[C@H]1C[C@@]2(C[C@@H](c3cn(C)nn3)N1)OC[C@H](O)c1cc(C(F)(F)F)sc12` [Compound 180] returned an IC50 in assay [1] below 0.05 µM. Also, in assay [2], the IC50 is below 0.05 µM and the Emax came to 102%.
As to `C[C@H]1C[C@@]2(C[C@@H](c3cn(C)nn3)N1)OC[C@@H](O)c1cc(C(F)(F)F)sc12` [Compound 181, (2S,4S,4′S,6S)-2-methyl-6-(1-methyl-1H-1,2,3-triazol-4-yl)-2′-(trifluoromethyl)-4′,5′-dihydrospiro[piperidine-4,7′-thieno[2,3-c]pyran]-4′-ol], in assay [1], the IC50 is below 0.05 µM. In assay [2], the IC50 was below 0.05 µM and the Emax worked out at 102%.
As for `C[C@H]1C[C@@]2(C[C@@H](c3cn(C)nn3)N1)OC[C@@H](O)c1sc(Cl)cc12` [Compound 182], the IC50 in assay [1] is below 0.05 µM. Moreover, in assay [2], the IC50 was below 0.05 µM and the Emax was found to be 113%.
As to `C[C@H]1C[C@@]2(C[C@@H](c3cn(C)nn3)N1)OCC(F)(F)c1cc(Cl)sc12` [Compound 183, (2′S,6′S,7S)-2-chloro-4,4-difluoro-2′-methyl-6′-(1-methyltriazol-4-yl)spiro[5H-thieno[2,3-c]pyran-7,4′-piperidine]], the IC50 in assay [1] was below 0.05 µM. In assay [2], the IC50 lay in the range of 0.05 to 0.5 µM and the Emax was found to be 106%.
For the compound `CCC1CC2(CC(c3cn(C)nn3)N1)OCCc1cc(Cl)sc12` (stereo not drawn) [Compound 186, 2-chloro-2′-ethyl-6′-(1-methyltriazol-4-yl)spiro[4,5-dihydrothieno[2,3-c]pyran-7,4′-piperidine]], in assay [1], the IC90 was 0.05 to 0.5 µM, the “Multi-Tox Assay Max Activity (%)” value amounted to 99.3% and the IC50 was below 0.05 µM. Also, in assay [2], the IC50 is 0.05 to 0.5 µM and the Emax turned out to be 104%.
In the case of `CCC1CC2(CC(c3cn(C)nn3)N1)OCCc1cc(C(F)(F)F)sc12` (stereo not drawn) [Compound 187, 2′-ethyl-6′-(1-methyltriazol-4-yl)-2-(trifluoromethyl)spiro[4,5-dihydrothieno[2,3-c]pyran-7,4′-piperidine]], in assay [1], the IC90 was below 0.05 µM, the “Multi-Tox Assay Max Activity (%)” value amounted to 100.0% and the IC50 was below 0.05 µM. In assay [2], the IC50 was in the range of 0.05 to 0.5 µM and the Emax amounted to 106%.
Consider `CC(C)C1CC2(CC(c3cn(C)nn3)N1)OCCc1cc(Cl)sc12` (stereo not drawn) [Compound 188], for which, in assay [1], the IC90 fell in the range of 0.05 to 0.5 µM, the “Multi-Tox Assay Max Activity (%)” value is 99.0% and the IC50 lay within 0.05 to 0.5 µM. Also, in assay [2], the IC50 is 0.05 to 0.5 µM and the Emax came to 108%.
`Cn1cc(C2CC3(CC(C4CCC4)N2)OCCc2cc(Cl)sc23)nn1` (stereo not drawn) [Compound 189]: the IC50 in assay [1] is 0.05 to 0.5 µM; in assay [2], above 0.5 µM. The Emax in assay [2] was 87.5%.
